Columns and labels:
[1] = test system: Malat-1; assay: Malat-1 RNA by RT-qPCR in MHT cells; autophagy modulator, then oligonucleotide by free uptake; type: cell-based, mouse; settings: for effect of autophagy modulator on modified oligonucleotide activity (in words): MOE gapmer 399462, relative to DMSO; for effect of autophagy modulator on antisense activity (in words): cEt gapmer 556089, relative to DMSO
Method: MHT cells (a mouse hepatocellular carcinoma cell line) were plated at 20,000 cells/well and treated with DMSO (control) or an autophagy modulator for 24 hours at the concentrations indicated in Table 2 below. 3-MA, BafA1, AZD8055, and leupeptin are […]. […] Fourteen hours after the addition of autophagy modulators, 10 μM of a modified control oligonucleotide or of a modified antisense oligonucleotide was added by free uptake for ten hours. The modified oligonucleotides, shown in Table 1 below, are 3-10-3 cEt gapmers in which every internucleoside linkage is a phosphorothioate internucleoside linkage. The three 5′-terminal nucleosides and the three 3′-terminal nucleosides of each oligonucleotide each comprise a cEt modified sugar moiety. The remaining ten nucleosides of each oligonucleotide each comprise an unmodified, 2′-deoxy sugar moiety.
Using the primer probe sets described in Table 3 below, RT-qPCR analysis was performed to detect RNA levels of Malat-1, shown in Table 4 and markers of autophagy, (Rab7, LAMP2, Atg7, ULK1, ULK2, Atg5, Beclin, and c-Jun), shown in Table 5. Results were normalized to cyclophilin A levels. To control for global effects of autophagy modulators on gene expression, Malat-1 RNA levels after treatment with an antisense oligonucleotide and an autophagy modulator were normalized to Malat-1 RNA levels in cells treated with control Compound No. 549148 and the same autophagy modulator.
MHT cells were plated at 20,000 cells/well and treated with DMSO (control) or an autophagy modulator for 24 hours, at the concentrations indicated Table 7 below. Fourteen hours after the addition of autophagy modulator, control or antisense oligonucleotides (see Table 6) were added at 1 μM, 2.5 μM, 5 μM, or 10 μM by free uptake for ten hours. The modified oligonucleotides, shown in Table 6 below, are 5-10-5 MOE gapmers in which every internucleoside linkage is a phosphorothioate internucleoside linkage. The five 5′-terminal nucleosides and the five 3′-terminal nucleosides of each oligonucleotide each comprise a 2′-MOE modified sugar moiety. The remaining ten nucleosides of each oligonucleotide each comprise an unmodified, 2′-deoxy sugar moiety.
RT-qPCR analysis was performed to detect RNA levels of Malat-1 using primer probe set 15877 (described in Example 1). In order to control for global effects of autophagy modulators on gene expression, Malat-1 RNA levels after treatment with an antisense oligonucleotide and an autophagy modulator were normalized to Malat-1 RNA levels in cells treated with control Compound No. 141923 and the same autophagy modulator. Each table below represents results from an individual assay.

[2] = test system: Malat-1; assay: Malat-1 RNA by RT-qPCR in A431 cells; type: cell-based, human; settings: MOE gapmer
Method: RT-qPCR analysis was performed to detect RNA levels of Malat-1 using primer probe set RTS2736. Results were normalized to cyclophilin A levels (measured using HTS3936). […] Each table below represents results from an individual assay.

[3] = test system: mTOR kinase activity (pS6/S6 levels); assay: Liver protein analysis in mice: pS6/S6; type: in vivo; settings: Table 34; mouse liver 24 h; oligonucleotide 5 mg/kg (or PBS); Treatment Rapamycin 5 mg/kg at 0, 12, 22 h
Method: The following experiments were performed to determine if the effects of autophagy modulators on antisense activity in vitro can be observed in vivo. […] Following administration of modified oligonucleotide, mice were administered 1% DMSO or 5 mg/kg AZD8055 in 1% DMSO at three time points over 24 hours: at the time of administration of the modified oligonucleotide, and 12 and 22 hours after administration of the modified oligonucleotide. A group of control mice was administered PBS at time 0 and 1% DMSO at 0, 12, and 22 hours. Mice were sacrificed at 24 hours after administration of the modified oligonucleotide and tissues were collected for analysis.
Protein analysis was carried out on liver tissue using standard procedures. All proteins were normalized to α-tubulin. […] The antibody against LC3B (ab48394) was purchased from Abcam. […] Antibody against P62 (GP62-C) was purchased from Progen.
A group of control mice was administered PBS at time 0 and 1% DMSO at 0, 12, and 22 hours. Mice were sacrificed at 24 hours after administration of the modified oligonucleotide and tissues were collected for analysis. […]

[4] = test system: LC3B; assay: Liver protein analysis in mice: LC3B II/I ratio; type: in vivo; settings: Table 34; mouse liver 24 h; oligonucleotide 5 mg/kg (or PBS); Treatment Rapamycin 5 mg/kg at 0, 12, 22 h
Method: (§1) The following experiments were performed to determine if the effects of autophagy modulators on antisense activity in vitro can be observed in vivo. Groups of 3-4 8-week-old male C57bl/6J mice were administered 5 mg/kg control oligonucleotide 141923, or 5 mg/kg antisense oligonucleotide 399462. Following administration of modified oligonucleotide, mice were administered 1% DMSO or 5 mg/kg AZD8055 in 1% DMSO at three time points over 24 hours: at the time of administration of the modified oligonucleotide, and 12 and 22 hours after administration of the modified oligonucleotide. A group of control mice was administered PBS at time 0 and 1% DMSO at 0, 12, and 22 hours. Mice were sacrificed at 24 hours after administration of the modified oligonucleotide and tissues were collected for analysis.
(§2) Autophagy activation was confirmed in livers by determining suppression of mTOR kinase activity (pS6/S6 levels), determining an increased LC3B II/I ratio (a marker for the formation of autophagosomes), and determining p62 degradation (related to the clearance of autophagosomes). Protein analysis was carried out on liver tissue using standard procedures. All proteins were normalized to α-tubulin. Phospho-S6 Ribosomal Protein (Ser240/244) (2215S), and S6 Ribosomal Protein (2217S) antibodies were obtained from Cell Signaling Technology. The antibody against LC3B (ab48394) was purchased from Abcam. […]

[5] = test system: p62; assay: Liver protein analysis in mice: p62; type: in vivo; settings: Table 34; mouse liver 24 h; oligonucleotide 5 mg/kg (or PBS); Treatment Rapamycin 5 mg/kg at 0, 12, 22 h
Method: as §1, §2

[6] = test system: Malat-1; assay: MALAT-1 RNA in mouse liver by RT-qPCR; type: in vivo; settings: Table 35; mouse liver 24 h; oligonucleotide 5 mg/kg; rapamycin 5 mg/kg at 0, 12, 22 h
Method: The following experiments were performed to determine if the effects of autophagy modulators on antisense activity in vitro can be observed in vivo. […] Mice were sacrificed at 24 hours after administration of the modified oligonucleotide and tissues were collected for analysis. […] Atg7 mRNA levels are a marker of the induction of autophagy in treated mouse livers. Results are presented as percent change of RNA, relative to PBS control treated with DMSO, normalized to mouse cyclophilin A measured using mouse primer probe set Cyclophilin-A (forward sequence [NT], designated herein as SEQ ID NO: 38; reverse sequence [NT], designated herein as SEQ ID NO: 39; probe sequence [NT], designated herein as SEQ ID NO: 40). […] Following administration of modified oligonucleotide, groups of mice were either allowed free access to chow (control) or fasted overnight (16 hr fast). Mice were sacrificed at 16 hours after administration of the modified oligonucleotide and tissues were collected for analysis. […] Atg7 mRNA levels are a marker of the induction of autophagy in treated mouse livers. Results are presented in Table 33 relative to mice treated with PBS and allowed normal access to chow. […] Mice were sacrificed at 24 hours after administration of the modified oligonucleotide and tissues were collected for analysis. […] Atg7 mRNA levels are a marker of the induction of autophagy in treated mouse livers. […] RNA was extracted from liver tissue for real-time RTPCR analysis of MALAT1 RNA expression. Primer probe set 15877 was used to measure mouse MALAT1 RNA levels. Results are presented as percent change of RNA, relative to PBS control, normalized to mouse cyclophilin A measured using mouse primer probe set Cyclophilin-A. […] RNA was extracted from liver tissue for real-time RTPCR analysis of MALAT1 RNA expression. Primer probe set 15877 was used to measure mouse MALAT1 RNA levels. Results are presented as percent change of RNA, relative to PBS control, normalized to mouse cyclophilin A measured using mouse primer probe set Cyclophilin-A.

[7] = test system: Atg7; assay: Atg7 mRNA in mouse liver by RT-qPCR; type: in vivo; settings: Table 35; mouse liver 24 h; oligonucleotide 5 mg/kg; rapamycin 5 mg/kg at 0, 12, 22 h
Method: The following experiments were performed to determine if the effects of autophagy modulators on antisense activity in vitro can be observed in vivo. […] Mice were sacrificed at 24 hours after administration of the modified oligonucleotide and tissues were collected for analysis. […] Atg7 mRNA levels are a marker of the induction of autophagy in treated mouse livers. Results are presented as percent change of RNA, relative to PBS control treated with DMSO, normalized to mouse cyclophilin A measured using mouse primer probe set Cyclophilin-A (forward sequence [NT], designated herein as SEQ ID NO: 38; reverse sequence [NT], designated herein as SEQ ID NO: 39; probe sequence [NT], designated herein as SEQ ID NO: 40). […] Following administration of modified oligonucleotide, groups of mice were either allowed free access to chow (control) or fasted overnight (16 hr fast). Mice were sacrificed at 16 hours after administration of the modified oligonucleotide and tissues were collected for analysis. […] Atg7 mRNA levels are a marker of the induction of autophagy in treated mouse livers. Results are presented in Table 33 relative to mice treated with PBS and allowed normal access to chow. […] Mice were sacrificed at 24 hours after administration of the modified oligonucleotide and tissues were collected for analysis. […]

SMILES	effect of autophagy modulator on modified oligonucleotide activity (in words) [1]	effect of autophagy modulator on antisense activity (in words) [1]	effect of autophagy modulator on modified oligonucleotide activity (in words) [2]	further results
CC[C@]1(O)C[C@@H]2CN(CCc3c([nH]c4ccccc34)[C@@](C(=O)OC)(c3cc4c(cc3OC)N(C)[C@H]3[C@@](O)(C(=O)OC)[C@H](OC(C)=O)[C@]5(CC)C=CCN6CC[C@]43[C@@H]65)C2)C1 [Vinblastine]	significantly enhanced modified oligonucleotide activity			
CO/C1=C\C(C)=C\[C@@H](C)[C@@H](O)[C@@H](C)C/C(C)=C/C=C/[C@H](OC)[C@@H]([C@@H](C)[C@@H](O)[C@H](C)[C@@]2(O)C[C@@H](O)[C@H](C)[C@@H](C(C)C)O2)OC1=O [BafA1, Bafilomycin A1]	significantly enhanced modified oligonucleotide activity	significantly enhanced antisense activity	significantly enhanced modified oligonucleotide activity	
CO[C@H]1C[C@@H]2CC[C@@H](C)[C@@](O)(O2)C(=O)C(=O)N2CCCC[C@H]2C(=O)O[C@H]([C@H](C)C[C@@H]2CC[C@@H](O)[C@H](OC)C2)CC(=O)[C@H](C)/C=C(\C)[C@@H](O)[C@@H](OC)C(=O)[C@H](C)C[C@H](C)/C=C/C=C/C=C/1C [Rapamycin]				pS6/S6 ratio [3]: 0.7; LC3B II/I ratio [4]: 1.3; P62 [5]: 0.8; Malat-1 level (% relative to PBS/DMSO mice) [6]: 89%; Atg7 level (% relative to PBS/DMSO mice) [7]: 111%
Cn1cnc(N)c2ncnc1-2 [3-MA, 3-methyladenine]	significantly enhanced modified oligonucleotide activity	significantly enhanced antisense activity		
CC(C)C(=O)CN1c2nc(N3CCOC[C@H]3C)cc(=O)n2CC[C@H]1C(F)(F)F [VPS34-IN2]	significantly enhanced modified oligonucleotide activity		significantly enhanced modified oligonucleotide activity	
CC(=O)N[C@@H](CC(C)C)C(=O)N[C@@H](CC(C)C)C(=O)N[C@H](C=O)CCCNC(=N)N [Leupeptin]	significantly enhanced modified oligonucleotide activity	significantly enhanced antisense activity	significantly enhanced modified oligonucleotide activity	
CCOC(=O)[C@H]1O[C@@H]1C(=O)N[C@@H](CC(C)C)C(=O)NCCC(C)C [E64D]	reduced activity of modified oligonucleotide			
